Where two headings read alike, the source gives them in different places.
Experiments:
[1] = Distribution coefficient (LogD) in octanol/PBS; format: physicochemical; settings: radiolabeled peptide (111In-labeled where the label names no radiometal); shake-flask octanol/PBS, 100 pmol/mL, 15 min shaking at 1500 rpm, γ-counter; mean ± SD, n = 8
Method: The distribution coefficient (LogD) in octanol/PBS was determined by mixing 0.5 mL of the radiolabeled DOTA peptides diluted in PBS (100 pmol/mL) and 0.5 mL octanol in a 1.5 mL microcentrifuge tube (n = 8). After shaking for 15 min (MS3 Basic, IKA, Staufen, Germany) at 1500 rpm and a waiting time of 10 min to ensure appropriate separation of the two phases, 100 µL aliquots of each phase were pipetted into 4.5 mL tubes. The tubes were measured using a γ-counter (2480 Wizard2 3″, PerkinElmer Life Sciences and Analytical Instruments, formerly Wallac Oy, Turku, Finland) and the LogD value was determined using following equation: LogD=Log(cpmoctanol phase/cpmPBS phase)

Complex stability in PBS = format: physicochemical; settings: 1000 pmol/mL in PBS, room temperature, 4 h after incubation, n = 1
Method: In vitro stability studies were performed in human serum (n = 2). The radiolabeled peptides (1000 pmol/mL) were incubated at 37 °C and a sample of 100 μL was taken at 1, 4, and 24 h after incubation. After the precipitation of proteins with ACN at 1:1.5 (v/v), centrifugation (14,000 rpm, 2 min, centrifuge 5424, Eppendorf AG, Germany) and dilution with water at 1:1 (v/v), an aliquot of 100 μL of this solution was analyzed by HPLC. Radioligand breakdown was monitored and the percentage of intact radiopeptide was calculated using Chromeleon Dionex Software (Version 7.2.9.11323). Additionally, the radiolabeled peptides (1000 pmol/mL) were incubated in PBS (n = 1) at room temperature to confirm the complex stability as a control.

[2] = Biodistribution in BALB/c nude mice bearing A431-CCK2R/A431-mock xenografts; format: in vivo; settings: female, mouse, iv, 20 pmol, total radioactivity, 20 pmol, gallium-68, 1 h p.i., mean ± SD n = 4; for tissue uptake at 1 h: xenografted BALB/c nude mice, i.v.; for tissue to tissue ratio at 1 h: BALB/c nude mice
Method: The overall biodistribution and tumor targeting properties of selected radiolabeled peptides were evaluated in female athymic BALB/c nude mice (Charles River, Sulzfeld, Germany, age of 7 to 9 weeks). After tumor induction with 2 × 10^6 A431-CCK2R or A431-mock cells (subcutaneously injected in 200 μL DMEM into the right and left flank) and a waiting period of 10–14 days (sufficient to achieve tumors of ∼0.25 g), mice were randomly divided into groups of four and treated with a bolus injection of 150 µL of the injectable solution containing the radiolabeled peptide via a lateral tail vein to achieve an injected radioactivity of 150–200 kBq and a total injected peptide amount of ~20 pmol (n = 4 for each radiopeptide). For DOTA-[(N-Me)1Nal^8]MGS5, additional biodistribution studies were performed with gallium-68 (~0.5 MBq, 20 pmol) and lutetium-177 (~0.5 MBq, 20 pmol). The animals were euthanatized by cervical dislocation at 1 h (gallium-68) or 4 h p.i. (indium-111/ lutetium-177). The tumors and other tissues (blood, lung, heart, muscle, spleen, intestine, liver, kidney, stomach, and pancreas) were dissected, weighed, and the radioactivity measured in the γ-counter. The rest of the body and a standard of the solution injected was also measured together with the collected samples. The percentage of injected activity per gram of tissue (% IA/g) and the tumor-to-organ activity ratio of selected tissues were calculated for each mouse and time point studied. Origin software (Microcal Origin 6.1, Northampton, MA, USA) was used for statistical analysis (independent t-test for two populations; significance level p < 0.05).

[3] = Metabolic studies in BALB/c mice (intact radiopeptide by radio-HPLC); format: in vivo; settings: i.v., 2 nmol, 10 min p.i., two animals per peptide
Method: All animal experiments were approved by the Austrian Ministry of Science (BMWF-66.011/0075- WF/V/3b/2016) and performed in accordance with the Austrian Animal Protection Act. Metabolic studies characterizing the stability of selected radioligands against enzymatic degradation were carried out in 7 to 8 week old female BALB/c mice (Charles River, Sulzfeld, Germany). The mice (two animals for each peptide) were intravenously injected into a lateral tail vein with 5–10 MBq of the ^111In-labeled peptide derivatives, corresponding to 2 nmol total peptide. At the time point of 10 min p.i. the animals were euthanatized by cervical dislocation. A sample of urine and blood was immediately collected. Liver and kidneys were dissected, mixed with 20 mM HEPES buffer pH 7.3 (1:1, w/v) and homogenized using an Ultra-Turrax T8 homogenizer (IKA-Werke, Staufen, Germany) for 1 min. All samples taken were analyzed by analytical HPLC using the low-sensitivity loop for urine and the high-sensitivity loop for blood, liver and kidney. Before injection into the HPLC system, all samples except urine were treated with ACN and diluted with water as described for stability studies in human serum. The percentage of intact radiopeptide in the analyzed samples was calculated by integration of the different peaks found in the radiochromatogram using Chromeleon Dionex Software (Version 7.2.9.11323).

For `CCCC[C@@H](C(=O)N[C@@H](CC(=O)O)C(=O)N(C)[C@@H](Cc1cccc2ccccc12)C(N)=O)N(C)C(=O)[C@H](Cc1c[nH]c2ccccc12)NC(=O)CNC(=O)[C@H](Cc1ccc(O)cc1)NC(=O)[C@H](C)NC(=O)[C@@H](CCC(=O)O)NC(=O)CN1CCN(CC(=O)O)CCN(CC(=O)O)CCN(CC(=O)O)CC1` [[^68Ga]Ga-DOTA-[(N-Me)1Nal^8]MGS5, metal not drawn], the LogD [1] was −2.2 ± 0.1, the “Stability of the DOTA-complex in PBS” value (Complex stability in PBS) was 99.2% and the tissue uptake at 1 h ([2]; BALB/c nude, heart, read-out: Uptake in heart) was 0.95 ± 0.32 %ID/g. For the same molecule, the tissue uptake at 1 h ([2]; BALB/c nude, intestine, read-out: Uptake in intestine) was 0.82 ± 0.18 %ID/g, the tissue uptake at 1 h ([2]; BALB/c nude, lung, read-out: Uptake in lung) was 1.61 ± 0.42 %ID/g and the tissue uptake at 1 h ([2]; BALB/c nude, muscle, read-out: Uptake in muscle) was 0.45 ± 0.08 %ID/g. For the same molecule, the tissue uptake at 1 h ([2]; BALB/c nude, spleen, read-out: Uptake in spleen) was 1.19 ± 0.25 %ID/g, the tissue to tissue ratio at 1 h ([2]; athymic BALB/c nude, A431-CCK2R xenograft / blood, A431-CCK2R xenograft, read-out: tumor-to-organ ratio: blood) was 6.03 ± 2.26 and the tissue to tissue ratio at 1 h ([2]; athymic BALB/c nude, A431-CCK2R xenograft / kidney, A431-CCK2R xenograft, read-out: tumor-to-organ ratio: kidney) was 2.36 ± 1.14. The tissue to tissue ratio at 1 h ([2]; athymic BALB/c nude, A431-CCK2R xenograft / stomach, A431-CCK2R xenograft, read-out: tumor-to-organ ratio: stomach) was 10.2 ± 3.5, the tissue uptake at 1 h ([2]; athymic BALB/c nude, A431-CCK2R xenograft, read-out: Uptake in A431-CCK2R xenograft) was 15.7 ± 2.21 %ID/g and the tissue uptake at 1 h ([2]; athymic BALB/c nude, A431-mock xenograft, read-out: Uptake in A431-mock xenograft) was 1.51 ± 0.98 %ID/g. For the same molecule, the tissue uptake at 1 h ([2]; athymic BALB/c nude, blood, read-out: Uptake in blood) was 2.82 ± 0.88 %ID/g, the tissue uptake at 1 h ([2]; athymic BALB/c nude, kidneys, read-out: Uptake in kidneys) was 7.7 ± 3.1 %ID/g and the tissue uptake at 1 h ([2]; athymic BALB/c nude, liver, read-out: Uptake in liver) was 2.25 ± 0.55 %ID/g. It also gave a tissue uptake at 1 h ([2]; athymic BALB/c nude, pancreas, read-out: Uptake in pancreas) of 0.87 ± 0.29 %ID/g and a tissue uptake at 1 h ([2]; athymic BALB/c nude, stomach, read-out: Uptake in stomach) of 1.63 ± 0.41 %ID/g.

In the case of `CCCC[C@@H](C(=O)N[C@@H](CC(=O)O)C(=O)N(C)[C@@H](Cc1cccc2ccccc12)C(N)=O)N(C)C(=O)[C@H](Cc1c[nH]c2ccccc12)NC(=O)CNC(=O)[C@H](Cc1ccc(O)cc1)NC(=O)[C@H](C)NC(=O)[C@@H](CCC(=O)O)NC(=O)CN1CCN(CC(=O)O)CCN(CC(=O)O)CCN(CC(=O)O)CC1` [[^111In]In-DOTA-[(N-Me)1Nal^8]MGS5] [metal not drawn], the “Intact radiopeptide in kidney” value ([3]; kidney homogenate) is reported as 40.2 ± 4.1%, the “Intact radiopeptide in liver” value ([3]; liver homogenate) is reported as 94.9 ± 2.8% and the “Intact radiopeptide in blood” value [3] is reported as 98.4 ± 0.1%. The “Intact radiopeptide in urine” value [3] was 15.9 ± 3.4% and the “Stability of the DOTA-complex in PBS” value (Complex stability in PBS) was 96.2%.

In the case of `CCCC[C@@H](C(=O)N[C@@H](CC(=O)O)C(=O)N(C)[C@@H](Cc1cccc2ccccc12)C(N)=O)N(C)C(=O)[C@H](Cc1c[nH]c2ccccc12)NC(=O)CNC(=O)[C@H](Cc1ccc(O)cc1)NC(=O)[C@H](C)NC(=O)[C@@H](CCC(=O)O)NC(=O)CN1CCN(CC(=O)O)CCN(CC(=O)O)CCN(CC(=O)O)CC1` [[^177Lu]Lu-DOTA-[(N-Me)1Nal^8]MGS5] [metal not drawn], the “Stability of the DOTA-complex in PBS” value (Complex stability in PBS) is reported as 99%.

Source: PMC9959130, “Effects of Side Chain and Peptide Bond Modifications on the Targeting Properties of Stabilized Minigastrin Analogs” (Pharmaceuticals, 2023)
